From paper PMC9468011 (Nature Communications, 2022)

Biological target: T1, G-Flamp1 (cpGFP inserted into mlCNBD of the MlotiK1 channel) (Mesorhizobium japonicum, UniProt Q98GN8, P285N/S308V)
T1 construct: gene mll3241; GFP D173G plus Citrine/sfGFP mutations) inserted between residues 285 and 286; N-terminal RSET 6xHis tag kept for Kd; tag-free (SUMO cut) for crystal; E. coli; monomer
T1 sequence (Q98GN8 213-355 P285N/S308V): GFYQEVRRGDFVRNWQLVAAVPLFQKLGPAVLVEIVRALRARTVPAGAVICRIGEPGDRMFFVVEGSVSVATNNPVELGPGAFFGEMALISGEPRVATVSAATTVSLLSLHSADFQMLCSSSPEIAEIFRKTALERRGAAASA
Assay: fluorescence titration of purified sensor (ex […] nm), sigmoidal fit
Assay type: binding

- Kd: 30.1 µM
Structure (SMILES): Nc1nc2c(ncn2[C@@H]2O[C@@H]3COP(=O)(O)O[C@H]3[C@H]2O)c(=O)[nH]1 [cGMP]
